Test systems include MDA-MB-231 breast; MALME-3M melanoma; KM12 colon; OVCAR-4 ovarian; M14 melanoma; T-47D breast; HT29 colon; MCF7 breast; SK-MEL-5 melanoma; SK-OV-3 ovarian.
Common to all, as to test: growth of human tumour cells (NCI), 48 h

Several values for one entry are separate records, joined by “and”; a condition that tells them apart may be missing. Identical values can stand only once.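 Method: 48-hour compound exposure of cells in 96-well plates, five concentrations, linear interpolation of endpoints. The concentration for 50% growth inhibition is given as GI50. TGI is the concentration that stops growth completely.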

For the compound `CCOc1cc(C(C)(C)C)ccc1C1=N[C@H](c2ccc(Cl)cc2)[C@H](c2ccc(Cl)cc2)N1C(=O)N1CCN(CC#Cc2cccc3c2CN([C@@H]2CCC(=O)NC2=O)C3=O)CC1`, the GI50 was 0.0192 µM in the test on MDA-MB-231 breast; 0.0331 µM in the test on MALME-3M melanoma; 2.22 µM with KM12 colon; 0.101 µM in the test on OVCAR-4 ovarian; 1.46 µM with M14 melanoma; 0.0431 µM in the test on T-47D breast. Further, the GI50 was 2.41 µM in the test with HT29 colon, 0.0712 µM in the test on MCF7 breast, 0.868 µM with SK-MEL-5 melanoma and 6.95 µM in the test with SK-OV-3 ovarian. Besides, the TGI with MDA-MB-231 breast was 0.0797 µM; in the test on MALME-3M melanoma, 0.778 µM; in the test with KM12 colon, above 100 µM; with OVCAR-4 ovarian, above 100 µM; with M14 melanoma it was above 47.3 µM; in the test on T-47D breast it was 12.9 µM. For the same compound, the TGI was above 34.8 µM in the test with HT29 colon, above 100 µM in the test with MCF7 breast, 2.2 µM in the test on SK-MEL-5 melanoma and above 88.9 µM in the test on SK-OV-3 ovarian.

On to `NCCCNCCS`, for which the TGI in the test on MDA-MB-231 breast, with MALME-3M melanoma, in the test with KM12 colon, in the test with OVCAR-4 ovarian, in the test on M14 melanoma and in the test on T-47D breast was above 100 µM in each case. Also, the TGI in the test on HT29 colon, with MCF7 breast, with SK-MEL-5 melanoma and with SK-OV-3 ovarian was above 100 µM in each case.

For the compound `Cn1c(Cl)c(/C=C2/C(=O)Nc3ccccc32)c2ccccc21`, the GI50 with MDA-MB-231 breast is 0.588 µM; in the test on MALME-3M melanoma it was 0.179 µM; with KM12 colon it was 0.0689 µM; in the test on OVCAR-4 ovarian it was 2.62 µM; in the test with M14 melanoma, 0.248 µM; in the test with T-47D breast it was 0.724 µM. The GI50 in the test with HT29 colon was 0.144 µM; with MCF7 breast, 0.198 µM; in the test on SK-MEL-5 melanoma it was 0.0964 µM; in the test on SK-OV-3 ovarian, 0.732 µM. Further, the TGI in the test on MDA-MB-231 breast was 12.7 µM; with MALME-3M melanoma it was 15.3 µM; in the test with KM12 colon, 1.27 µM; with OVCAR-4 ovarian, above 46.7 µM; in the test with M14 melanoma, 5.46 µM; in the test with T-47D breast, 23.9 µM. Also, the figures for the TGI in the test on HT29 colon, in the test with SK-MEL-5 melanoma and with SK-OV-3 ovarian were above 100 µM, 1.23 µM and 10.5 µM, respectively.

Consider `O=C1C(=O)c2ccccc2C(O)=C1C(C1=C(O)c2ccccc2C(=O)C1=O)c1ccc(Cl)cc1`, for which the TGI was 22.7 µM with MDA-MB-231 breast; 12 µM in the test with MALME-3M melanoma; 25 µM in the test on KM12 colon; 18.6 µM in the test on OVCAR-4 ovarian; 23.7 µM with M14 melanoma; above 57.7 µM in the test on T-47D breast. Besides, the TGI in the test on HT29 colon was found to be 20.9 µM; in the test with MCF7 breast, 11.4 µM; in the test with SK-MEL-5 melanoma it was 19.9 µM; in the test on SK-OV-3 ovarian, 33.5 µM.

As for `Nc1ncnc2c1ncn2C1C=C(CO)C(O)C1O` (centres undefined), the TGI in the test on MDA-MB-231 breast is 52.5 µM; with MALME-3M melanoma, above 100 µM; in the test with KM12 colon, above 100 µM; in the test with OVCAR-4 ovarian it was above 56.8 µM; in the test on M14 melanoma, above 100 µM; in the test on T-47D breast it was 10.2 µM. Further, the TGI with HT29 colon is above 100 µM; in the test with MCF7 breast it was above 100 µM; in the test on SK-MEL-5 melanoma, above 100 µM; in the test on SK-OV-3 ovarian it was 44.2 µM.

As to `O=C(O)CSCCc1ccccc1`, the TGI in the test on MDA-MB-231 breast, in the test on MALME-3M melanoma, in the test on KM12 colon, with OVCAR-4 ovarian, with M14 melanoma and with T-47D breast was above 100 µM throughout. The TGI with HT29 colon, in the test on MCF7 breast, with SK-MEL-5 melanoma and in the test on SK-OV-3 ovarian was above 100 µM each time.

Turning to `COc1ccc(C(C#N)NC23CC4CC(CC(C4)C2)C3)cc1` (centres undefined), the TGI in the test with MDA-MB-231 breast, in the test with MALME-3M melanoma, in the test with KM12 colon, in the test with OVCAR-4 ovarian, in the test on M14 melanoma and with T-47D breast was above 100 µM throughout. For the same compound, the TGI in the test on HT29 colon, in the test with MCF7 breast, in the test on SK-MEL-5 melanoma and in the test with SK-OV-3 ovarian was above 100 µM in each case.

As to `Cc1cc(N(CC(C)Br)CC(C)Br)ccc1N=Nc1ccccc1C(=O)O` (centres undefined), the TGI in the test with MDA-MB-231 breast was 32.8 µM; with MALME-3M melanoma it was 18.6 µM; with KM12 colon, 27.4 µM; with OVCAR-4 ovarian, 5.53 µM; with M14 melanoma, 20.1 µM; with T-47D breast it was 5 µM. Further, the TGI in the test with HT29 colon was found to be 14.2 µM; in the test with MCF7 breast, 7.67 µM; with SK-MEL-5 melanoma, 14.6 µM; in the test with SK-OV-3 ovarian, 39.7 µM.

Consider `CCN(CC)CCCC(CCl)Nc1ccnc2cc(Cl)ccc12` (centres undefined), for which the GI50 in the test with MDA-MB-231 breast was 16.3 µM and 5.11 µM; in the test on MALME-3M melanoma, 8.53 µM and 4.95 µM; with KM12 colon it was 16.7 µM and 16.2 µM; in the test on OVCAR-4 ovarian, 35.8 µM and 30.9 µM; with M14 melanoma, 2.13 µM and 2.39 µM; with T-47D breast it was 49.2 µM and 34.1 µM. Besides, the GI50 in the test on HT29 colon was 14.7 µM and 6.38 µM; with MCF7 breast it was 23.9 µM and 27.9 µM; in the test with SK-MEL-5 melanoma, 10.3 µM and 13 µM; in the test with SK-OV-3 ovarian it was above 100 µM. For the same compound, the TGI was 79.5 µM and > 43.1 µM in the test with MDA-MB-231 breast; 21.1 µM and 20.1 µM with MALME-3M melanoma; 34 µM and 50.6 µM in the test on KM12 colon; above 100 µM with OVCAR-4 ovarian; 4.38 µM and 4.92 µM with M14 melanoma; above 100 µM in the test with T-47D breast. Also, the TGI in the test on HT29 colon is above 100 µM; in the test with MCF7 breast it was 75.2 µM and > 87.2 µM; in the test on SK-MEL-5 melanoma, 23.5 µM and 28.6 µM; in the test with SK-OV-3 ovarian, above 100 µM.

As to `CC/C=C\C[C@H]1CC=C2C(=O)C=C[C@@H]2CC=CCCCC(=O)O[C@@H](CCCCC)CC=C2C(=O)C=C[C@@H]2CC=CCCCC(=O)O[C@@H](CCCCC)CC=C2C(=O)C=C[C@@H]2CC=CCCCC(=O)O[C@@H](CCCCC)CC=C2C(=O)C=C[C@@H]2CC=CCCCC(=O)O1`, the GI50 is 1.91 µM with MDA-MB-231 breast; 2.77 µM in the test on MALME-3M melanoma; 2.51 µM with KM12 colon; 2.2 µM with OVCAR-4 ovarian; 2.09 µM in the test on M14 melanoma; 1.81 µM in the test with T-47D breast. For the same compound, the GI50 with HT29 colon was 2.86 µM; with MCF7 breast, 1.46 µM; in the test on SK-MEL-5 melanoma, 1.85 µM; in the test on SK-OV-3 ovarian it was 7.64 µM. Further, the TGI in the test on MDA-MB-231 breast was 4.99 µM; in the test on MALME-3M melanoma, above 7.9 µM; with KM12 colon, above 7.9 µM; in the test with OVCAR-4 ovarian it was above 7.9 µM; in the test on M14 melanoma it was 7.46 µM; in the test with T-47D breast it was 5.12 µM. The TGI in the test with HT29 colon is 6.93 µM; with MCF7 breast it was above 7.9 µM; in the test with SK-MEL-5 melanoma, 4.5 µM; with SK-OV-3 ovarian it was above 7.9 µM.

Values taken from PubChem BioAssay (NCI).
